Usually MIC90 stands for the lowest concentration that inhibits either 90% of growth or 90% of the strains tested, depending on the study. Usually IC50 stands for the concentration at which inhibition is half-maximal. A higher IC50 goes with a need for much substance. By MIC80 is commonly meant an inhibitory concentration at the 80% level, which refers to growth in some studies and to a panel of isolates in others.

In brackets after ≈: the same amount, converted by molar mass.

Experiment [1] deals with Mycobacterium tuberculosis. Nature of the experiment: Antimycobacterial activity against Mycobacterium tuberculosis H37Rv ATCC 27294 after 5 days by microplate alamar blue assay. Format: functional. The settings on record: H37Rv ATCC 27294, 120 h. On the technique in general: The colour change of resazurin is a common sign of viable cells or microbes.
The next experiment concerns HEK293. Put plainly: Cytotoxicity against human HEK293 cells after 36 hrs by MTT assay. Format: cell-based. The settings on record: HEK293, 36 h. (Formazan colour is commonly taken as a measure of viable cells.)
In experiment [2] the test system is Acinetobacter calcoaceticus. Nature of the experiment: Antibacterial activity against Acinetobacter calcoaceticus by agar dilution method. Format: functional.
For another experiment, the system named is Klebsiella pneumoniae. Nature of the experiment: Antibacterial activity against Klebsiella pneumoniae by agar dilution method. Format: functional. In general terms: In agar dilution the substance is mixed into plates at graded concentrations.
The next experiment has as its system Escherichia coli. Nature of the experiment: Antibacterial activity against Escherichia coli by agar dilution method. Format: functional.
The test system of a further experiment is Proteus vulgaris. Nature of the experiment: Antibacterial activity against Proteus vulgaris by agar dilution method. Format: functional.
The next experiment has as its system Staphylococcus aureus. Put plainly: Antibacterial activity against Staphylococcus aureus by agar dilution method. Format: functional.
In another experiment the test system is Serratia marcescens. Nature of the experiment: Antibacterial activity against Serratia marcescens by agar dilution method. Format: functional.
The test system of another experiment is Proteus mirabilis. Nature of the experiment: Antibacterial activity against Proteus mirabilis by agar dilution method. It counts as functional.
For a further experiment, the system named is Pseudomonas aeruginosa. Nature of the experiment: Antibacterial activity against Pseudomonas aeruginosa by agar dilution method. Format: functional.

For the compound `O=C(c1ccc2c(c1)OCCO2)C1CCN(Cc2coc(-c3cccnc3)n2)CC1`, in experiment [1], the MIC90 was 32 µg/mL (≈ 78.9 µM). The compound also registered a concentration for half-maximal inhibition (IC50) in the experiment on HEK293 of over 150 µg/mL.
The compound `NNC(=O)c1ccncc1` [ISONIAZID] registered an MIC90 in experiment [1] of under 0.5 µg/mL.
As to `CO[C@H]1/C=C/O[C@@]2(C)Oc3c(C)c(O)c4c(O)c(c(/C=N/N5CCN(C)CC5)c(O)c4c3C2=O)NC(=O)/C(C)=C\C=C\[C@H](C)[C@H](O)[C@@H](C)[C@@H](O)[C@@H](C)[C@H](OC(C)=O)[C@@H]1C` [RIFAMPIN], the MIC90 in [1] was under 0.5 µg/mL.
`CC(C)(C)c1ccc(-c2nc(CN3CCC(C(=O)c4ccc5c(c4)OCCO5)CC3)co2)cc1` yielded an MIC90 in experiment [1] of 8 µg/mL (≈ 17.4 µM). Further, the MIC80 (in experiment [2]; with Klebsiella pneumoniae; with Escherichia coli; in the experiment on Proteus vulgaris; in the experiment with Staphylococcus aureus; in the experiment with Serratia marcescens) was over 128 µg/mL in each case. For the same compound, the MIC80 against Proteus mirabilis and with Pseudomonas aeruginosa was over 128 µg/mL each time. For the same compound, the IC50 in the experiment on HEK293 is over 150 µg/mL.
In experiment [1], `COc1ccc(C(=O)C2CCN(Cc3coc(-c4ccc(F)cc4)n3)CC2)cc1OC` came in with an MIC90 of 8 µg/mL (≈ 18.8 µM). Further, the IC50 with HEK293 was over 150 µg/mL.
In the case of `O=C(c1ccc2c(c1)OCCO2)C1CCN(Cc2csc(-c3ccc(Cl)cc3)n2)CC1`, the MIC90 in experiment [1] was over 128 µg/mL.
Regarding `O=C(c1ccc2c(c1)OCCO2)C1CCN(Cc2coc(-c3ccco3)n2)CC1`, the MIC90 in experiment [1] was determined as 16 µg/mL (≈ 40.6 µM). Further, the IC50 in the experiment on HEK293 is over 150 µg/mL.
In the same order, the values of `O=C(c1ccc2c(c1)OCCO2)C1CCN(Cc2coc(-c3cccc(F)c3)n2)CC1` are 4 µg/mL (≈ 9.47 µM) and over 150 µg/mL.
In the case of `CC[C@@H](CO)NCCN[C@@H](CC)CO` [ETHAMBUTOL], the MIC90 in experiment [1] is under 0.5 µg/mL.
In turn, `O=C(c1ccc2c(c1)OCCO2)C1CCN(Cc2coc(-c3ccc(F)c(F)c3)n2)CC1` had an MIC90 in experiment [1] of 8 µg/mL (≈ 18.2 µM). The compound further gave an IC50 in the experiment with HEK293 of over 150 µg/mL.
On the same counts, the results for `COc1ccc(-c2nc(CN3CCC(C(=O)c4ccc5c(c4)OCCO5)CC3)co2)cc1` are 8 µg/mL (≈ 18.4 µM) and over 150 µg/mL.
As for `Cc1ccc(C(=O)C2CCN(Cc3coc(-c4ccc(F)cc4)n3)CC2)cc1C`, the MIC90 in experiment [1] stood at 8 µg/mL (≈ 20.4 µM). The compound further gave a half-inhibitory concentration (IC50) with HEK293 of over 150 µg/mL.
`O=C(c1ccccc1)C1CCN(Cc2coc(-c3ccc(F)cc3)n2)CC1` returned an MIC90 in experiment [1] of 2 µg/mL (≈ 5.49 µM). Further, in the experiment with HEK293, the IC50 was over 150 µg/mL.
`O=C(c1ccc2c(c1)OCCO2)C1CCN(Cc2coc(-c3ccc(Cl)cc3)n2)CC1`: the MIC90 in experiment [1] amounted to 2 µg/mL (≈ 4.56 µM). The MIC80 (in experiment [2]; against Klebsiella pneumoniae; in the experiment with Escherichia coli; with Proteus vulgaris; with Staphylococcus aureus; against Serratia marcescens) was over 128 µg/mL each time. Further, the MIC80 with Proteus mirabilis and in the experiment on Pseudomonas aeruginosa was over 128 µg/mL each time. The compound further came in with a half-maximal inhibitory concentration (IC50) with HEK293 of over 150 µg/mL.
In turn, `O=C(c1ccc2c(c1)OCCO2)C1CCN(Cc2coc(-c3ccc(F)cc3)n2)CC1` displayed an MIC90 in experiment [1] of 8 µg/mL (≈ 18.9 µM). For the same compound, the IC50 in the experiment with HEK293 was over 150 µg/mL.
As to `Cc1ccc(C(=O)C2CCN(Cc3coc(-c4ccc(F)cc4)n3)CC2)cc1`, the MIC90 in experiment [1] is 4 µg/mL (≈ 10.6 µM). In addition, the IC50 in the experiment with HEK293 is over 150 µg/mL.
Turning to `O=C(c1ccc2c(c1)OCCO2)C1CCN(Cc2coc(-c3ccccc3F)n2)CC1`, in [1], the MIC90 was 8 µg/mL (≈ 18.9 µM). Besides, in the experiment on HEK293, the IC50 is over 150 µg/mL.
`CN[C@@H]1[C@H](O[C@H]2[C@H](O[C@H]3[C@H](O)[C@@H](O)[C@H](N=C(N)N)[C@@H](O)[C@@H]3N=C(N)N)O[C@@H](C)[C@]2(O)C=O)O[C@@H](CO)[C@H](O)[C@H]1O` [STREPTOMYCIN] had an MIC90 in experiment [1] of under 0.5 µg/mL.
In experiment [1], `COc1ccc(C(=O)C2CCN(Cc3coc(-c4ccc(F)cc4)n3)CC2)cc1` yielded an MIC90 of 4 µg/mL (≈ 10.1 µM). The same compound registered an IC50 in the experiment on HEK293 of over 150 µg/mL.
As to `O=C(c1ccc2c(c1)OCCO2)C1CCN(Cc2coc(-c3ccc(C(F)(F)F)cc3)n2)CC1`, the MIC90 in experiment [1] was determined as 32 µg/mL (≈ 67.7 µM). In the experiment on HEK293, this compound registered an IC50 of over 150 µg/mL.
With `CC(C)(C)c1ccc(-c2nc(CN3CCC(C(=O)c4ccc5c(c4)OCCO5)CC3)cs2)cc1`, the MIC90 in experiment [1] was over 128 µg/mL.
Turning to `O=C(c1ccc2c(c1)OCCO2)C1CCN(Cc2coc(-c3ccoc3)n2)CC1`, in [1], the MIC90 stood at 32 µg/mL (≈ 81.1 µM). Besides, the concentration for half-maximal inhibition (IC50) in the experiment on HEK293 was over 150 µg/mL.
Take `O=C(c1ccc2c(c1)CCCC2)C1CCN(Cc2coc(-c3ccc(F)cc3)n2)CC1`: in experiment [1], the MIC90 turned out to be 1 µg/mL (≈ 2.39 µM). In addition, the MIC80 (in experiment [2]; in the experiment with Klebsiella pneumoniae; against Escherichia coli; against Proteus vulgaris; with Staphylococcus aureus; in the experiment on Serratia marcescens) was over 128 µg/mL throughout. The MIC80 in the experiment on Proteus mirabilis and in the experiment with Pseudomonas aeruginosa was over 128 µg/mL in each case. Besides, the IC50 with HEK293 is over 150 µg/mL.
`O=C(c1ccc2c(c1)OCCO2)C1CCN(Cc2cc(-c3ccc(F)cc3)on2)CC1`: the MIC90 in [1] was over 128 µg/mL.
Take `O=C(c1ccc2c(c1)OCCO2)C1CCN(Cc2coc(-c3ccc(Br)cc3)n2)CC1`: the MIC90 in experiment [1] came out at 8 µg/mL (≈ 16.6 µM). This compound also came in with an IC50 with HEK293 of over 150 µg/mL.
In turn, `O=C(c1ccc2c(c1)OCCO2)C1CCN(Cc2coc(-c3ccccc3)n2)CC1` yielded an MIC90 in [1] of 4 µg/mL (≈ 9.89 µM). The same compound displayed an IC50 in the experiment on HEK293 of over 150 µg/mL.
In experiment [1], `Cc1ccc(-c2nc(CN3CCC(C(=O)c4ccc5c(c4)OCCO5)CC3)co2)cc1` yielded an MIC90 of 64 µg/mL (≈ 153 µM). The IC50 in the experiment on HEK293 was over 150 µg/mL.
In turn, `CC(C)(C)c1ccc(-c2nc(CN3CCC(C(=O)c4ccc5c(c4)CCCC5)CC3)co2)cc1` returned an MIC90 in [1] of 8 µg/mL (≈ 17.5 µM). The same compound came in with an IC50 in the experiment on HEK293 of over 150 µg/mL.
`O=C(c1ccc(F)c(F)c1)C1CCN(Cc2coc(-c3ccc(F)cc3)n2)CC1` yielded an MIC90 in [1] of 2 µg/mL (≈ 5 µM). This compound also had an IC50 in the experiment on HEK293 of over 150 µg/mL.

The record behind these values is ChEMBL document CHEMBL3627615, “Discovery of the disubstituted oxazole analogues as a novel class anti-tuberculotic agents against MDR- and XDR-MTB” (Bioorg Med Chem Lett, 2015).
